Experiments:
[1] = Drug release study by dialysis in PBS pH 7.4 (physiological stability); assay type: physicochemical; settings: 10 mM PBS pH 7.4, 37° C.
Description: The dialysis tube was immersed in total 30 mL of 10 mM PBS (pH 7.4). The dialysis tube was then incubated at 37° C. on an orbital shaker at 50 rpm. […] The dialysis tube was then immersed in total 30 mL of 100 mM phosphate buffer (pH 6) at 37° C. At predetermined time points, the amount of cisplatin released in the medium was determined by ICP-MS as described above. […] This rapid drug leakage was caused by the dissociation of HA/cisplatin complexes via the replacement of the carboxylate ligand of Pt(II) with the chloride ion in PBS.

[2] = Biodistribution study in SKOV-3 tumor-bearing mice; assay type: in vivo, athymic NCR nude mice; settings: intravenous, 2 mg Pt kg^−1, 4 hours post-injection
Description: All animal experiments were performed according to the protocols approved by the IACUC at the Biological Resource Centre, Singapore. Female athymic NCR nude mice (CrTac:Ncr-Foxn1^nu, 5-6 weeks old) were inoculated subcutaneously with 1×10^7 SKOV-3 cells suspended in 100 μL of PBS and 100 μL of Matrigel (BD Bioscience, of the United States of America) in the right flank. […] At predetermined time points, blood and organs were collected (4 mice per time point). The collected plasma and organs were decomposed in 65% (v/v) nitric acid at 60° C. for 2 hours, and the platinum concentration was measured by ICP-MS.

[3] = system: SKOV-3 human ovarian cancer xenograft; test: Antitumor efficacy study in a subcutaneous xenograft model; assay type: in vivo, NCR mice; settings: 1 mg Pt kg^−1 i.v. on days 0, 7 and 14
Description: Female NCR mice bearing a subcutaneous SKOV-3 human ovarian cancer xenograft (120-150 mm^3) were randomly allocated to different treatments (10 mice per group). […] An isotonic dextrose solution (5% w/v) was used as a control. The tumor volume (mm^3) was calculated from the following formula: volume=(length×width^2)/2. In addition, a change in the body weight in the course of treatment was monitored as a measure of systemic toxicity.

[4] = Blood chemistry analysis 38 days after first treatment; assay type: in vivo, athymic NCR mice; settings: 38-days endpoint, 1 mg Pt kg^−1 i.v. days 0, 7, 14
Excerpt: The athymic NCR mice that received different treatments were sacrificed to collect blood, tumor, and organs 38 days after the first treatment. For blood chemistry analysis, blood samples were collected in heparinized tubes and then examined using the Vetscan VS2 blood chemistry analyzer (Abaxis Inc., of California of the United States of America). The levels of alkaline phosphatase (ALP), alanine aminotransferase (ALT) and other serum markers were examined. The excised tumors and organs were fixed with neutral buffered formalin, embedded in paraffin blocks, and then sectioned for hematoxylin and eosin (H&E) staining.

For N.N.[Cl][Pt][Cl] [free cisplatin, cisplatin], which “time to complete release from the dialysis tube” value [1] is on record?
Its value is no more than 6 h.

And the “cisplatin dose delivered into the tumor mass” value [2]?
Its value is 1.53±0.48 % ID/g.

What about the “platinum accumulation in the liver” value [2] of the same compound?
Its value is 1.31±0.25 % ID/g.

And the tumor growth [3]?
The tumor growth was “slightly delayed the tumor growth”.

What about the mean tumor volume ([3]; day 38) of the same compound?
The mean tumor volume was 299.7±117.7 mm^3.

What about the “ALP level in blood” value [4] of the same compound?
The value was “elevated”.

What about the “ALT level in blood” value [4] of the same compound?
Its value is “elevated”.

Reference: US10993917B2, “Nanocomplex” (AGENCY FOR SCIENCE, TECHNOLOGY AND RESEARCH, priority 2016, dated 2021)
